{
  "source": "paper PMC10294771",
  "about": "(Journal of Enzyme Inhibition and Medicinal Chemistry, 2023)",
  "test_system": "HCT-116 cells",
  "assay": "In vitro cytotoxicity assay",
  "type": "cell-based",
  "conditions": "Homo sapiens, HCT-116, 72 h, read-out: IC50, HCT-116 cell proliferation",
  "data": [
    {"smiles": "C[C@H](O)C(=O)N1CCC(CCn2c(Sc3cc4c(cc3Br)OCO4)nc3c(N)ncnc32)CC1", "note": "[MPC-3100, (2S)-1-[4-(2-{6-amino-8-[(6-bromo-1,3-benzodioxol-5-yl)sulfanyl]-9H-purin-9-yl}ethyl)piperidin-1-yl]-2-hydroxypropan-1-one]", "values": [
      {"measurement": "IC50", "value": 780, "unit": "nM"}
    ]}
  ]
}
